“And” between values parts separate entries of the source, which are not always exact repeats. Equal entries are not always repeated. Where two headings read alike, the source gives them in different places. Peptide text beside a SMILES is read from it.
Assays:
[1] = tested on: E. coli BW25113; experiment: Checkerboard assay with erythromycin; format: cell-based, Escherichia coli
[2] = tested on: E. coli EQASmcr-3 (EQAS 2017 2013-SQ352); format: cell-based, Escherichia coli
[3] = tested on: E. coli W3110; format: cell-based, Escherichia coli
[4] = tested on: E. coli BW25113; format: cell-based, Escherichia coli
[5] = tested on: E. coli EQASmcr-1 (EQAS 2016 412016126); format: cell-based, Escherichia coli
[6] = tested on: E. coli EQASmcr-2 (EQAS 2016 KP37); format: cell-based, Escherichia coli
[7] = tested on: P. aeruginosa ATCC27853; experiment: Checkerboard assay with rifampicin; format: cell-based, Pseudomonas aeruginosa
Protocol: All peptides were screened for antimicrobial activity against E. coli BW25113, E. coli ATCC25922, and E. coli W3110. A select group of the peptides was further tested against E. coli mcr-1, E. coli EQASmcr-1 (EQAS 2016 412016126), E. coli EQASmcr-2 (EQAS 2016 KP37), E. coli EQASmcr-3 (EQAS 2017 2013-SQ352), K. pneumoniae ATCC13883, P. aeruginosa ATCC27853, and A. baumannii ATCC17978. The antimicrobial assay was performed according to CLSI guidelines. Bacteria were plated out directly from their glycerol stocks on blood agar plates, incubated overnight at 37 °C, and then kept in the fridge. The blood agar plates were only used for 2 weeks and then replaced.
One colony from a blood agar plates was inoculated in Lysogeny Broth (LB) at 37 °C until a 0.5 optical density at 600 nm (OD600) was reached (compared to the sterility control of LB). The bacterial suspension was diluted in fresh LB to 2.0 × 10^6 CFU/mL. The serial dilutions were prepared in polypropylene microtiter plates: a stock of the test compounds was prepared with a 2x final concentration in LB. Moreover, 100 µL of the stock was added to the wells of the top row of which 50 µL was used for the serial dilution. The bottom row of each plate was used as the positive (50 µL of LB) and negative controls (100 µL of LB) (6 wells each). Furthermore, 50 µL of the 2.0 × 10^6 CFU/mL bacterial stock was added to each well except for the negative controls, adding up to a total volume of 100 µL per well. The plates were sealed with a breathable seal and incubated for 20 h at 37 °C and 600 rpm.
Two 96-well plates were required per compound. A serial dilution of the compound was performed on two plates from row A–G using with LB as medium. Row H was filled with 25 µL medium. On a separate plate a negative control (8 wells, 100 μL medium) was prepared. For all concentrations of antibiotic a specific stock was prepared. 25 µL medium was added to the 0 µg/mL antibiotic columns (plate I, column 1–3). Of each antibiotic stock 25 µL was added to three columns to obtain triplicates for every condition. Both plates contained 50 µL in each well to which 50 µL bacterial stock was added (see the protocol of the MIC assays) and the plates were sealed. After incubation for 20 h at 37 °C while shaking, the breathable seals were removed and the density of the bacterial suspensions measured at 600 nm (OD600) using a Tecan Spark plate reader. The OD600 values were transformed to a 2D gradient with the negative control as minimum and the positive control (wells G1, G2, and G3) as maximum in excel. The FICi was calculated using Equation (1) with a FICi ≤ 0.5 indicating synergy. FICi = (MSCa/MICa) + (MSCb/MICb),(1)
Calculation of the FICi: MSCa = concentration of the […] in combination with the antibiotic that results in the lowest FICi. MICa = MIC of the antibiotic without synergist (row G). MSCb = concentration of the synergist in combination with the antibiotic that results in the lowest FICi. MICb = MIC of the synergist itself (Column 1–3, plate I).

[8] = tested on: E. coli BW25113; experiment: microbe, parasite or virus in culture; format: cell-based, Escherichia coli
[9] = tested on: defibrinated sheep blood (red blood cells); experiment: Hemolysis assay; format: cell-based; details: 200 µg/mL compound, 20 h incubation at 37 °C with defibrinated sheep blood, PBS 0.002% Tween20, absorbance 415 nm, relative to 0.1% Triton X-100; n=3 technical replicates
How it was run: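 % hemolysis is supernatant absorbance at 415 nm, minus the buffer-only background, relative to 0.1% Triton X-100 lysis. Compound dilutions (200–1.56 µg/mL before adding cells) were incubated with an equal volume of red cells for 20 h at 37 °C and 500 rpm. Cells were washed and normalized in PBS/0.002% Tween20 to about 2.5 A415 at full lysis.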

For `CC[C@H](C)[C@H](NC(=O)[C@@H](NC(=O)[C@H](CCCCN)NC(=O)[C@H](CCC(N)=O)NC(=O)[C@@H](NC(=O)[C@H](Cc1c[nH]c2ccccc12)NC(=O)[C@H](CCCCN)NC(=O)[C@H](CCCCN)NC(=O)[C@H](CC(C)C)NC(=O)[C@H](CCCNC(=N)N)NC(=O)[C@H](Cc1ccccc1)NC(=O)[C@@H](N)C(C)C)[C@@H](C)CC)C(C)C)C(N)=O` [peptide 6] (H-VFRLKKWIQKVI-NH2), the MSCery ([1]; erythromycin concentration in the combination with the synergist giving the lowest FICi, E. coli BW25113) was 12.5 µg/mL, the “MIC of the peptide (MICpep)” value ([1]; synergist alone, E. coli BW25113, LB, 20 h 37 °C, from checkerboard with erythromycin) was 12.5 µg/mL and the “MSCpeptide, minimum synergistic concentration” value ([1]; synergist concentration in the combination with erythromycin giving the lowest FICi, E. coli BW25113, LB, 20 h 37 °C, OD600) was 3.125 µg/mL and 3.13 µg/mL. It also gave an FICi ([2]; EQASmcr-3 (EQAS 2017 2013-SQ352, 20 h)) of 0.0781, an MICpeptide ([2]; peptide alone, E. coli EQASmcr-3) of 50 µg/mL and an MSCpeptide ([2]; peptide concentration in the combination with rifampicin giving the lowest FICi, E. coli EQASmcr-3) of 3.125 µg/mL. It also gave an MSCrif ([2]; rifampicin concentration in the combination giving the lowest FICi, E. coli EQASmcr-3) of 0.125 µg/mL, an MICpeptide ([3]; peptide alone, E. coli W3110) of 6.25 µg/mL and an MSCpeptide ([3]; peptide concentration in the combination with rifampicin giving the lowest FICi, E. coli W3110) of 3.125 µg/mL. The MSCrif ([3]; rifampicin concentration in the combination giving the lowest FICi, E. coli W3110) was 0.125 µg/mL, the FICi ([3]; with rifampicin vs E. coli W3110, synergy defined as FICi ≤ 0.5) was > 0.5 and the FICi ([4]; BW25113, 20 h) was 0.1563. It also gave an MSCrif ([4]; rifampicin concentration in the combination giving the lowest FICi, E. coli BW25113) of 0.25 µg/mL, an MICpep ([4]; synergist alone, E. coli BW25113, from checkerboard with rifampicin) of 25 µg/mL and an MSCpep ([4]; synergist concentration in the combination with rifampicin giving the lowest FICi, E. coli BW25113) of 3.125 µg/mL. It also gave an FICi ([5]; EQASmcr-1 (EQAS 2016 412016126, 20 h)) of 0.0781, an MICpeptide ([5]; peptide alone, E. coli EQASmcr-1) of 100 µg/mL and an MSCpeptide ([5]; peptide concentration in the combination with rifampicin giving the lowest FICi, E. coli EQASmcr-1) of 6.25 µg/mL. It also gave an MSCrif ([5]; rifampicin concentration in the combination giving the lowest FICi, E. coli EQASmcr-1) of 0.125 µg/mL, an FICi ([6]; EQASmcr-2 (EQAS 2016 KP37, 20 h)) of 0.0938 and an MICpeptide ([6]; peptide alone, E. coli EQASmcr-2) of 100 µg/mL. It also gave an MSCpeptide ([6]; peptide concentration in the combination with rifampicin giving the lowest FICi, E. coli EQASmcr-2) of 6.25 µg/mL, an MSCrif ([6]; rifampicin concentration in the combination giving the lowest FICi, E. coli EQASmcr-2) of 0.25 µg/mL and an MICpeptide ([7]; peptide alone, P. aeruginosa ATCC27853) of 50 µg/mL. The MSCpeptide ([7]; peptide concentration in the combination with rifampicin giving the lowest FICi, P. aeruginosa ATCC27853) was 25 µg/mL, the MSCrif ([7]; rifampicin concentration in the combination giving the lowest FICi, P. aeruginosa ATCC27853) was 1 µg/mL and the FICi ([7]; with rifampicin vs P. aeruginosa ATCC27853, synergy defined as FICi ≤ 0.5) was > 0.5. The FICi ([8]; BW25113, 20 h) was 0.1875, the MSCnovo ([8]; novobiocin concentration in the combination giving the lowest FICi, E. coli BW25113) was 25 µg/mL and the MICpeptide ([8]; synergist alone, E. coli BW25113, from checkerboard with novobiocin) was 12.5 µg/mL. It also gave an MSCpeptide ([8]; synergist concentration in the combination with novobiocin giving the lowest FICi, E. coli BW25113) of 1.563 µg/mL and a Hemolysis [9] of 4.0%.

— publication PMC8037310, “Thrombin-Derived Peptides Potentiate the Activity of Gram-Positive-Specific Antibiotics against Gram-Negative Bacteria” (Molecules, 2021)
